Counter-ions that a name gives are not always drawn.
Key:
[1] = oral bioavailability: urinary recovery as acyclovir after gavage; details: Long Evans rats, dose equivalent to 25 mg/kg acyclovir, urine collected 24 and 48 hours post-dose
Description: Long Evans Rats were adminstered the compound to be tested by gavage at a dose equivalent to 25 mg/kg acyclovir. The urine was collected for 24 and 48 hours post-dose, ultrafiltered, and analysed by reverse-phase high-pressure liquid chromatography. The oral bioavailability of the compound was expressed as the percent of the dose excreted in the urine as acyclovir.

[2] = growth inhibition of uninfected mammalian cells (L cells); type: cell-based; details: mouse, three days exposure, L cells (murine), read-out: Cell Toxicity (% of control at 100µm) L-Cells
Description: (§1) The capability of candidate compounds to inhibit the growth of D98 cells (human) and L cells (murine) was measured by determination of cell number following three days exposure of a standard number of cells to various dilutions of compound (Rideout, J. L., Krenitsky, T.A., Koszalka, G.W., Cohn, N.K., Chao, E.Y. Elion, G.B., Latter, V.S., and Williams, R.B. (1982) J. Med Chem. 25: 1040-1044). The cell number was then compared to the number obtained in the absence of compound. Cell enumeration was performed by either direct particle counts following trypsinization of the monolayer, or by spectrophotometric determination of the amount of vital stain taken up by the cells.
(§2) The concentration of compound resulting in 50% of control values (IC50) was calculated either by direct interpolation from graphs of the log of the compound concentration versus the percent of control value, or from a computer program which analyses the data according to the same algorithm. Data in the range of 20% to 80% of control were used in these calculations.

[3] = humans, after oral administration (background statement); cited from earlier work
[4] = growth inhibition of uninfected mammalian cells (D98); type: cell-based; details: three days exposure, D-98 cells (human), read-out: Cell Toxicity (% of control at 100µm) D-98 Cells
Description: as §1, §2

[5] = tested on: Herpes Simplex Virus (HSV 1); assay: plaque reduction assay of HSV 1 in monolayers of Vero cells; type: cell-based; details: HSV 1, Vero cells, read-out: IC₅₀
Description: Herpes Simplex Virus (HSV 1) was assayed in monolayers of Vero cells in multiwell trays. Activity of compounds was determined in the plaque reduction assay, in which a cell monolayer was infected with a suspension of HSV 1, and then overlaid with nutrient agarose in the form of a gel to ensure that there was no spread of virus throughout the culture. A range of concentrations of compound of known molarity was incorporated in the nutrient agarose overlay. Plaque numbers at each concentration were expressed as percentages of the control and a dose-response curve was drawn. From this curve the 50% inhibitory concentration (IC₅₀) was estimated.

| SMILES | Urinary Recovery (% of dose) as acyclovir [1] | IC50 [5] [nM] | activity at 72 h, 100 µM [2] [%] | recovery in the urine [3] [%] | activity at 72 h, 100 µM [4] [%] |
| --- | --- | --- | --- | --- | --- |
| Nc1nc2c(ncn2COCCO)c(=O)[nH]1 [Acyclovir, 9-(2-Hydroxyethoxymethyl)guanine] |  | 80 to 100 | 72 | 20 | 99 |
| CC[C@H](C)[C@H](N)C(=O)OCCOCn1cnc2c(=O)[nH]c(N)nc21 [Example 2, 2-(2-amino-1,6-dihydro-6-oxo-9H(purin-9-yl)methoxy)ethyl L-isoleucinate hydrochloride] | 50 % of dose | 3800 | 83 |  | 80 |
| CC(C)[C@H](N)C(=O)OCCOCn1cnc2c(=O)[nH]c(N)nc21 [Example 1B, 2-(2-Amino-1,6-dihydro-6-oxo-9H(purin-9-yl)methoxy) ethyl L-valinate hydrochloride monohydrate] |  |  | 85 |  | 91 |

Now from value to compound, other results behind:

| Urinary Recovery (% of dose) as acyclovir [1] | IC50 [5] [nM] | SMILES | activity at 72 h, 100 µM [2] [%] | recovery in the urine [3] [%] | activity at 72 h, 100 µM [4] [%] |
| --- | --- | --- | --- | --- | --- |
| 30 % of dose |  | NCC(=O)OCCOCn1cnc2c(=O)[nH]c(N)nc21 [Glycyl ester of ACV] |  |  |  |
| 34 % of dose |  | C[C@H](N)C(=O)OCCOCn1cnc2c(=O)[nH]c(N)nc21 [L -alanyl ester of ACV] |  |  |  |
